Test results published in patent US20210309669A1, “Heterocyclic Spiro Compounds As MAGL Inhibitors” (Pfizer Inc., priority 2018, published 2021).

Key:
[1] = Dog intravenous pharmacokinetic study; format: in vivo, Male beagle dogs; settings: male, beagle, IV dose of 1 mg/kg, plasma, read-out: Dog t1/2 (converted)
Description: The pharmacokinetic studies in dog were conducted at Pfizer Global Research and Development (Groton, Conn.). All in vivo studies were conducted in accordance with regulations and established guidelines using protocols reviewed and approved by the Pfizer Worldwide Research and Development (WRD, or other) Institutional Animal Care and Use Committee.
Male beagle dogs were fasted overnight with water provided ad libitium. The dogs were fed at approximately 2-4 h post-dose. The dogs (n=2) were administered an IV bolus via the cephalic vein. Compounds of Examples 1-3 were tested along with the following four comparative compounds.
All test compounds were administered an IV dose of 1 mg/kg of the specified compound which was delivered in a dose volume of 0.5 mL/kg. The dose solution was formulated in 10% PEG400/90% of 23% (w/v) HPBCD in de-ionized water for the following test compounds: Example 1, Example 2, and Example 3; in 20% SBECD (sulfobutyl either β-cyclodextrin) for Comparative-Compound 3; in 23% (w/v) HPBCD (hydroxypropyl β-cyclodextrin) in water for Comparative Compound 2; in 12.5.% SBECD in water with 0.25% 0.1N HCl to pH 5 for Comparative Compound 1. Serial blood samples were collected from each dog via the jugular vein prior to dose administration and at the following time points post-dose: 0.083, 0.25, 0.5, 1, 2, 4, 7, and 24 h for all compounds with an additional time point of 0.016 h collected for Comparative Compound 1 only. Blood samples were collected into tubes containing EDTA and placed on wet ice. Following centrifugation to afford plasma, the samples were transferred to polypropylene tubes and stored frozen at −20° C. to −80° C. until analysis.
All plasma samples were quantified via liquid chromatography/tandem mass spectrometry (LC/MS-MS) using multiple reaction monitoring with non-validated methods. The plasma standard curves were generated with species specific plasma. Pharmacokinetic parameters were determined by non-compartmental analysis using Watson LIMS software version 7.4 (Thermo Fisher Scientific, Waltham, Mass.). The area under the concentration versus time curve (AUC) was calculated from the first time point to the last time point with measurable drug concentration using a linear trapezoidal rule. The area under the concentration versus time curve from the first time point to time infinity (AUC(0-inf)) was calculated by extrapolation from the time point where the last measurable concentration occurred to time infinity by dividing the observed concentration at the last time point by the elimination rate constant determined using linear regression of plasma concentration versus time data. The plasma clearance (CLp) was calculated by the equation CLp=dose/AUC(0-inf). The elimination half-life (t½) was calculated using the following equation t1/2=ln 2/k; k is equal to the rate constant of elimination calculated by the least squares of the log transformed data.

[2] = In vitro intrinsic clearance in human liver microsomes (HLM); format: in vitro ADME; settings: pH 7.4, 1 μM substrate, NADPH, 37° C., read-out: HLM CLint, app
Description: Test Compounds (Example 1-3 and Comparative-Compounds 1-4) were prepared as solutions in DMSO. The final concentration of DMSO in the incubation was <0.1% (v/v). […] (all final concentrations) in a 384-well plate. The reaction mixture was pre-warmed at 37° C. for 10 min prior to initiation of the incubation. The incubation was quenched with acetonitrile containing internal standards at the following time points: 1, 4, 7, 12, 20, 25, 45, and 60 min (individual incubation plates per time point) with a subsequent addition of water. The samples were vortexed followed by centrifugation and the supernatant was analyzed by LC/MS-MS using multiple reaction monitoring. For control experiments, NADPH was omitted from the incubations.
The microsomal t½ (min) was obtained from a log-linear plot of the substrate depletion versus incubation time and was scaled to hepatic intrinsic clearance (CLint,app (μL/min/mg protein) using the following equation: […]

[3] = Mouse subcutaneous neuropharmacokinetics study; format: in vivo, Male C57Bl6 mice; settings: male, C57Bl6, mouse, brain (cerebellum homogenate) and plasma, sc, subcutaneous dose of 1 mg/kg, read-out: Mouse Cb,u/Cp,u
Description: The neuropharmacokinetics studies in mouse were conducted at Wuxi (Shanghai, China) with bioanalysis conducted at BioDuro (Beijing, China) with the exception of the Comparative-compound 3, which bioanalysis was conducted at Wuxi. All in vivo studies were conducted in accordance with regulations and established guidelines using protocols reviewed and approved by the Pfizer Worldwide Research and Development (WRD, or other) Institutional Animal Care and Use Committee.
Male C57Bl6 mice were maintained on a 12-h light/dark cycle in a temperature- and humidity-controlled environment with free access to food and water. The test compounds (Examples 1 and 2 and Comparative Compounds 1-3) were administered as a subcutaneous dose of 1 mg/kg which was delivered in a dose volume of 10 mL/kg. The dose solution for all compounds was formulated in 5% DMSO/5% cremophor/90% saline. Blood and brain samples were collected at 0.5, 1, 2, 4, 8, 12, and 24 h post-dose (n=3 per time point). Blood samples were collected into tubes containing sodium fluoride and 4-(2-aminoethyl)benzenesulfonyl fluoride hydrochloride (AEBSF; final concentration 2 mg/mL) to inhibit hydrolase activity and placed on wet ice. Following centrifugation to afford plasma, the samples were transferred to polypropylene tubes and stored frozen at −20° C. to −80° C. until analysis. Immediately following blood collection the mice were euthanized by cervical dislocation and the brains were removed. The cerebellum was immediately frozen in liquid nitrogen and stored at −80° C. until analysis.
Cerebellum samples were thawed, diluted 1:4 (w/v) with water, and homogenized using an H-speed dispersator. Standards and controls were prepared in a similar manner using a brain homogenate prepared from untreated animals. The plasma standard curves were generated with species specific plasma. All plasma and brain homogenate samples were quantified via LC/MS-MS using multiple reaction monitoring with non-validated methods.
Equilibrium dialysis using standard procedures [See Di et al., “Species independence in brain tissue binding using brain homogenates”; Drug Metab Dispos 39:1270-1277, 2011) were used for determination of the unbound fraction of the test compounds (Examples 1 and 2 and Comparative Compounds 1-3) in mouse plasma (fu,p; see Di et al., “impact of recovery on fraction unbound using equilibrium dialysis”; J Pharm Sci 101:1327-1335, 2012) and unbound fraction in rat brain homogenate (fu,b; see Di et al., “Species independence in brain tissue binding using brain homogenates”; Drug Metab Dispos 39:1270-1277, 2011). The determination of the unbound fraction in plasma also included the addition of AEBSF at a final concentration of 2 mg/mL to the incubation.
The pharmacokinetic parameters were computed by non-compartmental analysis using Watson Bioanalytical LIMS version 7.5. The AUC values were calculated using the linear trapezoidal method for both brain and plasma. Measured total plasma (Cp) and brain (Cb; assuming brain tissue density of 1 g/mL) concentrations were converted to unbound (free) values using the matrix specific binding factor (fu, p or fu,b) to determine free plasma (Cp,u) and free brain (Cb,u) values. All neurocompartmental ratios (Cb,u/Cp,u) were calculated through use of AUC values with the exception of Comparative Compounds 1 and 2 which used the mean of individual animal values due to insufficient data to calculate an AUC value.

[4] = In vitro intrinsic clearance in human hepatocytes; format: in vitro ADME; settings: 1 μM substrate, human hepatocytes 0.5 million viable cells per mL, 37° C.
Description: Test Compounds (Example 1-3 and Comparative-Compounds 1-4) were prepared as solutions in DMSO at 3 mM which were then diluted in media containing WEM. The final concentration of DMSO in the incubation was 0.03% (v/v). The in vitro half-life (t½) of each compound was determined in incubations containing substrate (1 μM), human hepatocytes (0.5 million viable cells per mL final concentration) in media containing WEM, 50 mM HEPES buffer (pH 7.4), and 26 mM sodium bicarbonate at 37° C. (all final concentrations) in a 96-well plate. The reaction mixture was pre-warmed at 37° C. for 30 min prior to the initiation of the incubation. The incubation was quenched with acetonitrile containing internal standards at the following time points: 0, 5, 15, 30, 60, 120, and 240 min (individual incubation plates per time point). The samples were vortexed followed by centrifugation. An aliquot of supernatant was transferred to a clean 96-well plate and analyzed by LC/MS-MS using multiple reaction monitoring. For control experiments, hepatocytes were omitted from the incubations.
The hepatocyte t½ (min) was obtained from a log-linear plot of the substrate depletion versus incubation time and was scaled to hepatic intrinsic clearance (CLint,app (μL/min/million cells) using the following equation: […]

CN([C@H]1COC2(CCN(C(=O)O[C@H](CO)C(F)(F)F)CC2)C1)S(=O)(=O)c1ccccc1 [Comparative-Compound 3, (2R)-1,1,1-trifluoro-3-hydroxypropan-2-yl (3R)-3-[methyl(phenylsulfonyl)-amino]-1-oxa-8-azaspiro[4.5]decane-8-carboxylate]
half-life [1]: 5 h | microsomal CLint at 1 μM [2]: 14.8 µL/min/mg | Kp,uu (unbound brain/unbound plasma ratio) [3]: 0.51 | HHEPs CLint, app [4]: 10.6 μL/min/million

CN([C@H]1COC2(CCN(C(=O)O[C@H](CO)C(F)(F)F)CC2)C1)S(=O)(=O)CC1CC1 [Comparative-Compound 1, (2R)-1,1,1-trifluoro-3-hydroxypropan-2-yl (3R)-3-{[(cyclopropylmethyl)sulfonyl](methyl)amino}-1-oxa-8-azaspiro[4.5]decane-8-carboxylate]
half-life [1]: 0.5 h | microsomal CLint at 1 μM [2]: < 12.5 µL/min/mg | Kp,uu (unbound brain/unbound plasma ratio) [3]: 0.18 | HHEPs CLint, app [4]: 5.5 μL/min/million

CN([C@H]1COC2(CCN(C(=O)O[C@H](CO)C(F)(F)F)CC2)C1)S(=O)(=O)C1CC1 [Comparative-Compound 2, (2R)-1,1,1-trifluoro-3-hydroxypropan-2-yl (3R)-3-[(cyclopropylsulfonyl)-(methyl)amino]-1-oxa-8-azaspiro[4.5]decane-8-carboxylate]
half-life [1]: 1.31 h | microsomal CLint at 1 μM [2]: < 8 µL/min/mg | Kp,uu (unbound brain/unbound plasma ratio) [3]: 0.29 | HHEPs CLint, app [4]: <3.52 μL/min/million
